{
  "source": "patent US20250090627A1",
  "about": "“NUTRITIONAL POLYPEPTIDE HAVING BRANCHED-STRUCTURE WITH EFFICIENT BROAD-SPECTRUM ANTIBACTERIAL AND ANTIFUNGAL FUNCTIONS” (ZHEJIANG UNIVERSITY, priority 2022, published 2025)",
  "key": {"[1]": {"system": "methicillin-resistant Staphylococcus aureus", "assay": "antibacterial effect against drug-resistant bacteria", "format": "cell-based", "conditions": "100 μg/mL", "procedure": "The above polypeptide (prepared by Method 1) was added in methicillin-resistant Staphylococcus aureus solutions at concentrations of 10^8 and 10^9 CFU/mL respectively according to the polypeptide concentration gradient, and then co-cultured at 37° C. for 24 hours. The polypeptide was effective in killing methicillin-resistant Staphylococcus aureus in the effective concentration range. The antimicrobial rate of 100 μg/mL of polypeptide solution could reach up to 100% (FIG. 2) and 98% or more (FIG. 3) respectively."}, "Staphylococcus aureus": {"system": "Staphylococcus aureus", "assay": "antibacterial effect, polypeptide co-cultured with microbe", "format": "cell-based", "conditions": "polypeptide 250 μg/mL; 10^8 CFU/mL; co-cultured at 37° C. for 24 hours"}, "Candida albicans": {"system": "Candida albicans", "assay": "antibacterial effect, polypeptide co-cultured with microbe", "format": "cell-based", "conditions": "polypeptide 250 μg/mL; 10^8 CFU/mL; co-cultured at 37° C. for 24 hours"}, "rats [2]": {"system": "rats", "assay": "in vivo hemocompatibility after caudal vein injection, blood routine examination", "procedure": "(§1) The polypeptide (prepared by Method 1) of the present disclosure was dissolved in physiological saline at a concentration of 1 mg/mL and injected into rats through the caudal vein at a dose of 8 mg/kg."}, "rats [3]": {"system": "rats", "assay": "safety (acute systemic inflammation) after caudal vein injection, blood routine examination", "format": "in vivo", "procedure": "as §1"}, "Pseudomonas aeruginosa": {"system": "Pseudomonas aeruginosa", "assay": "antibacterial effect, polypeptide co-cultured with microbe", "format": "cell-based", "conditions": "polypeptide 250 μg/mL; 10^8 CFU/mL; co-cultured at 37° C. for 24 hours"}, "Escherichia coli": {"system": "Escherichia coli", "assay": "antibacterial effect, polypeptide co-cultured with microbe", "format": "cell-based", "conditions": "polypeptide 250 μg/mL; 10^8 CFU/mL; co-cultured at 37° C. for 24 hours"}, "fibroblasts": {"system": "fibroblasts", "assay": "cell viability of fibroblasts, Cell Counting Kit-8", "format": "cell-based", "conditions": "DMEM with 10% fetal bovine serum, 48 h, effective concentration range (FIG. 4)", "procedure": "The polypeptide (prepared by Method 2) of the disclosure was added at different concentrations to Dulbecco's Modified Eagle's Medium (DMEM) containing fetal bovine serum (10% by volume) and used to culture fibroblasts. Cells were seeded at 10,000 cells per well in 96-well plates, incubated at 37° C. with a medium containing polypeptides at various concentrations as described above, and the cell viability was determined after 48 h using the Cell Counting Kit-8 method."}, "[4]": {"conditions": "MRSA 10^8 CFU/mL, 37° C. 24 hours (FIG. 2)"}, "[5]": {"conditions": "MRSA 10^9 CFU/mL, 37° C. 24 hours (FIG. 3)"}, "[6]": {"conditions": "1 mg/mL in physiological saline, caudal vein, 8 mg/kg, 24 h"}, "[7]": {"conditions": "rat blood 24 h after 8 mg/kg caudal vein injection"}, "[8]": {"conditions": "rat blood, 24 h after 8 mg/kg caudal vein injection (FIG. 5)"}},
  "data": [
    {"molecule": "CC1(C)S[C@@H]2[C@H](NC(=O)Cc3ccccc3)C(=O)N2[C@H]1C(=O)O", "note": "[penicillin G, reference compound]", "values": [
      {"measurement": "antimicrobial rate", "setting": "[1]; [4]", "result": "less than 10%"},
      {"measurement": "antimicrobial rate", "setting": "[1]; [5]", "result": "less than 10%"}
    ]},
    {"molecule": "hyperbranched polylysine [polypeptide (prepared by Method 1)]", "values": [
      {"measurement": "antibacterial effect", "setting": "Staphylococcus aureus", "result": 100, "unit": "%"},
      {"measurement": "antibacterial effect", "setting": "Candida albicans", "result": 100, "unit": "%"},
      {"measurement": "behavior of rats", "setting": "rats [2]; [6]", "result": "no abnormal behavior"},
      {"measurement": "survival of rats", "setting": "rats [2]; [6]", "result": "survived"},
      {"measurement": "concentration of hemoglobin (HGB), in words", "setting": "rats [2]; [7]", "result": "in the normal range"},
      {"measurement": "concentration of platelet (PLT), in words", "setting": "rats [2]; [7]", "result": "in the normal range"},
      {"measurement": "concentration of red blood cell (RBC), in words", "setting": "rats [2]; [7]", "result": "in the normal range"},
      {"measurement": "Red blood cell concentration", "setting": "rats [2]; rat blood 24 h after injection at 1 mg/mL (8 mg/kg), normal range 6.36-9.42", "result": "6.3 ± 0.3 10^12/L"},
      {"measurement": "Hemoglobin content", "setting": "rats [2]; rat blood 24 h after injection at 1 mg/mL (8 mg/kg), normal range 110-143", "result": "141.8 ± 10.1", "unit": "g/L"},
      {"measurement": "Platelet concentration", "setting": "rats [2]; rat blood 24 h after injection at 1 mg/mL (8 mg/kg), normal range 450-1590", "result": "847.0 ± 140.1 10^9/L"},
      {"measurement": "behavior of rats", "setting": "rats [3]; [6]", "result": "no abnormal behavior"},
      {"measurement": "survival of rats", "setting": "rats [3]; 1 mg/mL in physiological saline, caudal vein, 8 mg/kg, after 24 h", "result": "still alive"},
      {"measurement": "inflammatory features", "setting": "rats [3]; rat blood routine examination, 24 h after 8 mg/kg caudal vein injection", "result": "no inflammatory features"},
      {"measurement": "cell concentration of lymphocytes (Lym)", "setting": "rats [3]; [8]", "result": "in the normal range"},
      {"measurement": "cell concentration of monocytes (Mon)", "setting": "rats [3]; [8]", "result": "in the normal range"},
      {"measurement": "cell concentration of neutrophils (Neu)", "setting": "rats [3]; [8]", "result": "in the normal range"},
      {"measurement": "cell concentration of white blood cells (WBC)", "setting": "rats [3]; [8]", "result": "in the normal range"},
      {"measurement": "antibacterial effect", "setting": "Pseudomonas aeruginosa", "result": 100, "unit": "%"},
      {"measurement": "antibacterial effect", "setting": "Escherichia coli", "result": 100, "unit": "%"},
      {"measurement": "antimicrobial rate", "setting": "[1]; [4]", "result": 100, "unit": "%"},
      {"measurement": "antimicrobial rate", "setting": "[1]; [5]", "result": "≥ 98", "unit": "%"}
    ]},
    {"molecule": "hyperbranched polylysine [polypeptide (prepared by Method 2)]", "values": [
      {"measurement": "cytotoxicity (cell viability)", "setting": "fibroblasts", "result": "not cytotoxic"}
    ]}
  ]
}
